The values below come from patent US8618289B2 (Ambit Biosciences Corporation, priority 2008, dated 2013).

Read-outs that look alike come from different tables or passages of the source. A value given as a limit tells only on which side of the number the result lay.

Test [1] relates to 290 distinct kinases tested excluding mutant variants (321 in the larger panel). To be noted: no asterisk: panel of 290 distinct kinases.
Description: Competition binding assays used herein were developed, validated and performed as described in Fabian et al., Nature Biotechnology 2005, 23, 329-336. […] The liganded beads were blocked with excess biotin and washed with blocking buffer (SeaBlock (Pierce), 1% BSA, 0.05% Tween 20, 1 mM DTT) to remove unbound ligand and to reduce non-specific binding. […] Test compounds were prepared as 100× stocks in DMSO and rapidly diluted into the aqueous environment. DMSO was added to control assays lacking a test compound. Primary screen interactions were performed in polypropylene 384-well plates in a final volume of 34 μt, while Kd determinations were performed in polystyrene 96-well plates in a final volume of 135 pt. […] The kinase concentration in the eluates was measured by quantitative PCR. Each kinase was tested individually against each compound. Kds were determined using eleven serial threefold dilutions. A selectivity score, which is a quantitative measure of selectivity of a compound against a panel of enzymes, may be calculated for a compound by dividing the number of enzymes for which a compound meets a set criteria, (for example, a binding constant of 100 nM or less), by the total number of enzymes tested. […] (Note, for those compounds tested in a larger kinase panel, as indicated by an asterisk (*) next to the S35 score, the divisor is 321 (i.e. the larger panel contains 321 distinct kinases, excluding mutant variants.)).
For test [2], the target named is T1, RAF kinases (Homo sapiens, UniProt P15056, V600E). In words: biochemical.
Test [3] concerns MEK1 phosphorylation in the A375 human melanoma cell line. In words: cells. To be noted: A-375, read-out: pMEK IC50.
For test [4], the target named is RAF kinases (Homo sapiens, UniProt P04049). To be noted: read-out: RAF1 Kd; RAF1.
Test [5] has as its target RAF kinases (Homo sapiens, UniProt P15056). To be noted: read-out: BRAF WT Kd; BRAF WT.
A further test deals with A375 cells. As to the kind of experiment: cells. To be noted: Homo sapiens, A-375, read-out: A375 Viability EC50.
The target of test [6] is T1, RAF kinases. To be noted: read-out: BRAF V600E Kd; BRAF V600E.
For test [7], the system named is tumor growth or metastases. To be noted: preclinical studies; Sharma et al.; cited from earlier work.
The subject of a further test is Erk1/2. To be noted: carrageenan-induced pleurisy rat model; Sawatzky et al.; cited from earlier work.

Chain of RAF kinases (Homo sapiens, UniProt P15056) (P15056 whole entry): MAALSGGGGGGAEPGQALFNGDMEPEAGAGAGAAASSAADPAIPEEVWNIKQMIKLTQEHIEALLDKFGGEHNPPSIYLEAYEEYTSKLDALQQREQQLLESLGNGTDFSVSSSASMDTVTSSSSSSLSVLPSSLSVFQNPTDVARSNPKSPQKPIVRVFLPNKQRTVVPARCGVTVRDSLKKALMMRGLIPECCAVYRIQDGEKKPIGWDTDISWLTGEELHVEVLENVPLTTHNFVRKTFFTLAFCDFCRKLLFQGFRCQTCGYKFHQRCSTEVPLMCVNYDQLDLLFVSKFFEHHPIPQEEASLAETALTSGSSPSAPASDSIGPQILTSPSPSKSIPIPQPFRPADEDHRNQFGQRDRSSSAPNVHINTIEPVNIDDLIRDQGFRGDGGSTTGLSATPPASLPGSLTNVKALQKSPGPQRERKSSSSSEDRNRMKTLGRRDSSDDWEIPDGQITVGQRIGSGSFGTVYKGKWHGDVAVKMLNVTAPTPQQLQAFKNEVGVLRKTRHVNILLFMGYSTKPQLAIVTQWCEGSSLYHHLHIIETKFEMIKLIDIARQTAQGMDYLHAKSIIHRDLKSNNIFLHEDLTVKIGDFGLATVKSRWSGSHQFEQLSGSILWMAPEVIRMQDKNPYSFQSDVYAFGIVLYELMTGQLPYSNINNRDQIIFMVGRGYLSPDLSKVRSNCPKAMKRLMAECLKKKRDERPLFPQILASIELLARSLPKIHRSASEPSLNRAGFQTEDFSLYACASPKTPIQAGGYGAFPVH
T1 sequence (P15056 whole entry V600E): as the sequence (P15056 whole entry) above, with V600E counted along it
Chain of RAF kinases (Homo sapiens, UniProt P04049) (P04049 whole entry): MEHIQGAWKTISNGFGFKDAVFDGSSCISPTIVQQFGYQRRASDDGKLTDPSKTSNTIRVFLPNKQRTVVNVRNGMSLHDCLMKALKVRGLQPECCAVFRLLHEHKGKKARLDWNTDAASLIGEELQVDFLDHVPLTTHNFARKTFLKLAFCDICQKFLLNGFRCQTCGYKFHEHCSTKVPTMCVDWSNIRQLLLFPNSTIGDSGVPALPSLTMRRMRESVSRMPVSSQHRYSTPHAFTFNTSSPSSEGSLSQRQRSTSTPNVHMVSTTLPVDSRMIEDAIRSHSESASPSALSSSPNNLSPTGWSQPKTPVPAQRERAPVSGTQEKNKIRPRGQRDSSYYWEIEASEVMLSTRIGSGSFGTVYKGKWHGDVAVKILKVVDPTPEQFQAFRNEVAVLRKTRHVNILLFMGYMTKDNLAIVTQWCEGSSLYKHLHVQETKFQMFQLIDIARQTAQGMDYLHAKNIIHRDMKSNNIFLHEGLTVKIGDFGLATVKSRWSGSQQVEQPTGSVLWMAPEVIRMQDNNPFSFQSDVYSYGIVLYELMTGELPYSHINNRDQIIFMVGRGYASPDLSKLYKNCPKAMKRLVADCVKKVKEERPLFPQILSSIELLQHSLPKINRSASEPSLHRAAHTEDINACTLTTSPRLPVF

`COc1cc2ncnc(Oc3cccc(NC(=O)Nc4cc(C(C)(C)C)nn4-c4ccccc4C)c3)c2cc1OC` [Ex 342, 1-(3-tert-butyl-1-o-tolyl-1H-pyrazol-5-yl)-3-(3-(6,7-dimethoxyquinazolin-4-yloxy)phenyl)urea]: the S35 entry in [1] is given as “D (D > 0.40)”. Also, the values for the equilibrium dissociation constant (Kd) on RAF kinases [2], on RAF kinases [4] and on RAF kinases [5] were 250 to 500 nM, > 1000 nM and > 1000 nM, respectively. Further, the IC50 in test [3] was < 250 nM.

As to `COc1cc2ncnc(Sc3cccc(NC(=O)Nc4cc(C(C)(C)C)nn4-c4ccccc4Cl)c3)c2cc1OC` [Ex 341, 1-(3-tert-butyl-1-(2-chlorophenyl)-1H-pyrazol-5-yl)-3-(3-(6,7-dimethoxyquinazolin-4-ylthio)phenyl)urea], in [1], the S35 result is on record as “C (0.20 < C ≦ 0.40)”. Also, the Kd is 250 to 500 nM on RAF kinases [2], > 1000 nM at RAF kinases [4] and > 1000 nM at RAF kinases [5]. Further, in test [3], the 50% inhibitory concentration (IC50) was < 250 nM.

`CCc1cc(NC(=O)Nc2cccc(Oc3ncnc4cc(OC)c(OC)cc34)c2)n(-c2ccccc2)n1` [Ex 352, 1-(3-(6,7-dimethoxyquinazolin-4-yloxy)phenyl)-3-(3-ethyl-1-phenyl-1H-pyrazol-5-yl)urea]: in the test with A375 cells, the EC50 was 250 to 500 nM. Moreover, in test [1], the S35 result was “C (0.20 < C ≦ 0.40)”. The IC50 in test [3] was in the range of 500 to 1000 nM. The Kd at RAF kinases [4], at RAF kinases [6] and on RAF kinases [5] was < 250 nM throughout.

As to `COc1cc2ncnc(Oc3cccc(NC(=O)Nc4cc(C(C)(C)C)nn4-c4ccccc4Cl)c3)c2cc1OC` [Ex 340, 1-(3-tert-butyl-1-(2-chlorophenyl)-1H-pyrazol-5-yl)-3-(3-(6,7-dimethoxyquinazolin-4-yloxy)phenyl)urea], the S35 result in [1] is recorded as “D (D > 0.40)”. Also, the equilibrium dissociation constant (Kd) on RAF kinases [2] is 250 to 500 nM; at RAF kinases [4] it was > 1000 nM; at RAF kinases [5], > 1000 nM. Besides, the IC50 in [3] is < 250 nM.

For `COc1cc2ncnc(Sc3cccc(NC(=O)Nc4cc(C(C)(C)C)nn4-c4ccccc4C)c3)c2cc1OC` [Ex 343, 1-(3-tert-butyl-1-o-tolyl-1H-pyrazol-5-yl)-3-(3-(6,7-dimethoxyquinazolin-4-ylthio)phenyl)urea], the S35 result in test [1] is “C (0.20 < C ≦ 0.40)”. Besides, the figures for the Kd on RAF kinases [2], at RAF kinases [4] and at RAF kinases [5] were 250 to 500 nM, > 1000 nM and > 1000 nM, respectively. Besides, the IC50 in test [3] is < 250 nM.

`CNC(=O)c1cc(Oc2ccc(NC(=O)Nc3ccc(Cl)c(C(F)(F)F)c3)cc2)ccn1` [Sorafenib]: in [7], the “tumor growth or metastases in animals” value was “decrease in tumor growth or metastases”.

In the case of `COc1cc2ncnc(Oc3cccc(NC(=O)Nc4cc(C(C)C)nn4-c4cccnc4)c3)c2cc1OC` [Ex 350, 1-(3-(6,7-dimethoxyquinazolin-4-yloxy)phenyl)-3-(3-isopropyl-1-(pyridin-3-yl)-1H-pyrazol-5-yl)urea], in the test with A375 cells, the EC50 lay in the range of 250 to 500 nM. In addition, in test [1], the S35 result is recorded as “D (D > 0.40)”. Also, the IC50 in [3] lay in the range of 250 to 500 nM. For the same molecule, the equilibrium dissociation constant (Kd) at RAF kinases [4], on RAF kinases [6] and on RAF kinases [5] was < 250 nM throughout.

In the case of `COc1cccc(-c2cc(=O)c3ccccc3o2)c1N` [PD98059], the “eosinophilic proinflammatory cytokine release” value in the test on Erk1/2 is “inhibits eosinophilic proinflammatory cytokine release”.

Turning to `COc1cc2ncnc(Oc3cccc(NC(=O)Nc4cc(C(C)(F)F)nn4-c4cccnc4)c3)c2cc1OC` [Ex 311, 1-(3-(1,1-difluoroethyl)-1-(pyridin-3-yl)-1H-pyrazol-5-yl)-3-(3-(6,7-dimethoxyquinazolin-4-yloxy)phenyl)urea], in the test on A375 cells, the EC50 was in the range of 250 to 500 nM. Moreover, in test [1], the S35 result was “C (0.20 < C ≦ 0.40)”. Further, the concentration for half-maximal inhibition (IC50) in test [3] was 250 to 500 nM. Moreover, the Kd on RAF kinases [4], on RAF kinases [6] and at RAF kinases [5] was < 250 nM each time.

`COc1cc2ncnc(Oc3cccc(NC(=O)Nc4cc(C(C)(C)C)nn4-c4ccccn4)c3)c2cc1OC` [Ex 344, 1-(3-tert-Butyl-1-(pyridin-2-yl)-1H-pyrazol-5-yl)-3-(3-(6,7-dimethoxyquinazolin-4-yloxy)phenyl)urea]: the S35 entry in test [1] is “C (0.20 < C ≦ 0.40)”. Besides, the dissociation constant (Kd) was 500 to 1000 nM at RAF kinases [2], > 1000 nM at RAF kinases [4] and > 1000 nM at RAF kinases [5]. The concentration for half-maximal inhibition (IC50) in test [3] fell in the range of 500 to 1000 nM.

Regarding `COc1cc2ncnc(Sc3cccc(NC(=O)Nc4cc(C5(C(F)(F)F)CC5)nn4-c4ccc(C)cc4)c3)c2cc1OC` [Ex 347, 1-(3-(6,7-dimethoxyquinazolin-4-ylthio)phenyl)-3-(1-p-tolyl-3-(1-(trifluoromethyl)cyclopropyl)-1H-pyrazol-5-yl)urea], the S35 entry in test [1] was “D (D > 0.40)”. Further, the dissociation constant Kd at RAF kinases [2] is 250 to 500 nM; at RAF kinases [4] it was > 1000 nM; at RAF kinases [5], > 1000 nM. Also, the half-inhibitory concentration (IC50) in test [3] is < 250 nM.

On to `COc1cc2ncnc(Sc3cccc(NC(=O)Nc4cc(C(C)(C)C(F)(F)F)nn4-c4ccccc4)c3)c2cc1OC` [Ex 307, 1-(3-(6,7-dimethoxyquinazolin-4-ylthio)phenyl)-3-(1-phenyl-3-(1,1,1-trifluoro-2-methylpropan-2-yl)-1H-pyrazol-5-yl)urea], for which the S35 entry in test [1] is listed as “D (D > 0.40)”. Also, the Kd on RAF kinases [2] was 250 to 500 nM; on RAF kinases [4] it was > 1000 nM; at RAF kinases [5] it was > 1000 nM. Also, the IC50 in test [3] was < 250 nM.
